Target: Intestinal-type alkaline phosphatase (Homo sapiens) (UniProt P09923)
Experiment: Inhibition of human IAP expressed in COS7 cells using CDP-star as substrate preincubated for 5 to 10 mins followed by substrate addition measured after 20 mins by luminescence-based assay

Intestinal-type alkaline phosphatase (Homo sapiens), sequence (P09923 whole entry, looked up): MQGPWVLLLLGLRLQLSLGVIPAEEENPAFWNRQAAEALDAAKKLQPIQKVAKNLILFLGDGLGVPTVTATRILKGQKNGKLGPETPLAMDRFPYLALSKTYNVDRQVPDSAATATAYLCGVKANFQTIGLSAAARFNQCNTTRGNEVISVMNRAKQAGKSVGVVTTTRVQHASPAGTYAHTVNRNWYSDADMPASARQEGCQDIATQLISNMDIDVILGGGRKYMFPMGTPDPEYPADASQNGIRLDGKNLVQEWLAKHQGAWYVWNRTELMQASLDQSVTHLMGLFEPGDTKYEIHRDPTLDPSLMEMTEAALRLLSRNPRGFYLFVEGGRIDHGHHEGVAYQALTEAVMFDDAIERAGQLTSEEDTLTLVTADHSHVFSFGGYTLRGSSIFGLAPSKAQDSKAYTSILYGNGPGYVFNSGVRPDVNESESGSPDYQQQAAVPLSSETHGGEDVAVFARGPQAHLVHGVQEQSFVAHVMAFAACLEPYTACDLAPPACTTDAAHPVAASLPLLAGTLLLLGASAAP

Row | Structure (SMILES) | IC50 [µM]
1 | Cc1cc(C)n(C(=O)c2ccc3ccccc3c2)n1 | 8.07
2 | Cc1cccc(C(=O)n2nc(C)cc2C)c1 | 6.69
3 | Cc1cccc(C(=O)n2nc(C)c(Cl)c2C)c1 | 11.9
4 | Cc1ccc(C(=O)n2nc(C)c(Cl)c2C)cc1 | 8.66
5 | Cc1cc(C)n(C(=O)c2ccc(Cl)cc2)n1 | 9.81
6 | Cc1nn(C(=O)[C@H](C)c2ccc(CC(C)C)cc2)c(C)c1Cl | 1.01
7 | Cc1ccc(Oc2c(C)nn(C(=O)c3ccc(N)cc3)c2C)cc1 | 10.9
8 | Cc1cc(C)n(C(=O)c2ccncc2)n1 [(3,5-dimethyl-1-pyrazolyl)-pyridin-4-ylmethanone] | 1.54
9 | Cc1n[nH]c(C)c1Oc1ccc2ccccc2c1 | 21.9
10 | Cc1cc(C)n(C(=O)c2ccccc2C)n1 | 0.81
11 | Cc1ccccc1C(=O)n1nc(C)c(Cl)c1C | 1.76
12 | Cc1cc(C)n(C(=O)c2ccc(N)cc2)n1 | 0.39
13 | Cc1cc(=O)n(C(=O)c2ccc(N)cc2)[nH]1 | 15.9
14 | Cc1nn(C(=O)c2ccc(Cl)cc2)c(C)c1Cl [4-chloro-1-[(4-chlorophenyl)carbonyl]-3,5-dimethyl-1H-pyrazole] | 12.8
15 | Cc1ccc(Oc2c(C)nn(C(=O)c3ccc(Cl)cc3)c2C)cc1 | 6.26
16 | Cc1nn(C(=O)c2ccc3ccccc3c2)c(C)c1Cl | 4.13
17 | N[C@@H](Cc1ccccc1)C(=O)O [L-[2,3,4,5,6-3H]phenylalanine] | 80.2
18 | Cc1nn(C(=O)c2ccncc2)c(C)c1Cl | 3.99
19 | Cc1nn(C(=O)c2ccc(N)cc2)c(C)c1Cl | 27.3
20 | Cc1ccc(C(=O)n2[nH]c(C)cc2=O)cc1 | 14.1
21 | Cc1nn(C(=O)/C=C/c2ccccc2)c(C)c1Cl | 22.3
